15 molecules from PubChem BioAssay (NCI) can be followed below.

Where “and” joins values, the source holds several entries; their conditions need not be identical. Equal entries are not always repeated.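 1) Cells in 96-well plates. 2) Compound, 48 h, 5 concentrations. 3) Linear interpolation between surrounding doses. 4) Unreached endpoint = highest concentration. At the GI50, growth is halved. TGI is the concentration that stops growth completely.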 Where only a bound is given, the exact number is not on record here.

Among the test systems are XF 498 CNS; DLD-1 colon; M19-MEL melanoma; HOP-18 NSCLC; DMS 114 small cell lung; RXF-631 renal; SNB-78 CNS.
What all share (assay): DTP human tumour cell line panel, 48 h

Turning to `Cc1cc(Cl)ccc1NC(=O)C(=O)Cc1nc2ccc(C(=O)c3ccccc3)cc2[nH]c1=O`, the TGI in the test with XF 498 CNS, with DLD-1 colon, in the test with M19-MEL melanoma, in the test on HOP-18 NSCLC and in the test with DMS 114 small cell lung was over 100 µM throughout.
As to `C/C(=N/N(C=O)C[n+]1ccccc1)C(CN(CC(C)C)CC(C)C)C(=O)Nc1ccc(C)cc1C` (stereo unspecified), the concentration for total growth inhibition (TGI) in the test with DLD-1 colon, with RXF-631 renal and with DMS 114 small cell lung was over 100 µM each time.
As to `Nc1nc2c(ncn2Cc2ccccc2CCO)c(=O)[nH]1`, the TGI with XF 498 CNS, in the test on M19-MEL melanoma, with RXF-631 renal and in the test on DMS 114 small cell lung was over 100 µM throughout.
For `CC1(C)C(=O)C(O)=CC2C1=CCC1C2(C)C(=O)CC2(C)C(C(C)(O)C(=O)CC(O)C(C)(C)O)C(O)CC12C` (stereo unspecified), the TGI in the test on XF 498 CNS is 6.34 µM; with DLD-1 colon, over 74.6 µM; in the test on M19-MEL melanoma, over 97.2 µM; in the test with SNB-78 CNS, 25.9 µM; with HOP-18 NSCLC it was 12.3 µM; in the test on DMS 114 small cell lung, 45.9 µM.
Consider `Cc1cc([N+](=O)[O-])c(C)c2c1[nH]c1ccc(/C(CCC3CCCC3)=N\N)cc12`, for which the TGI was 28.1 µM in the test on XF 498 CNS; 37.2 µM in the test with M19-MEL melanoma; over 100 µM in the test on SNB-78 CNS; 23.8 µM in the test on HOP-18 NSCLC; 35.2 µM with DMS 114 small cell lung.
With `Cc1cc(C)c2c(c1)CN1CN2Cc2cc(C)cc(C)c21`, the total growth inhibition concentration (TGI) in the test with XF 498 CNS amounted to 33.4 µM; in the test on DLD-1 colon, 58.3 µM; in the test on M19-MEL melanoma, 53.4 µM; in the test on SNB-78 CNS it was 40.2 µM; in the test on HOP-18 NSCLC, 80.3 µM.
In the case of `CC(C)N(C(C)C)[PH+]1O[PH+](N(C(C)C)C(C)C)O[PH+](N(C(C)C)C(C)C)O[PH+](N(C(C)C)C(C)C)O[PH+](N(C(C)C)C(C)C)O1.[C-]#[O+].[C-]#[O+].[C-]#[O+].[C-]#[O+].[C-]#[O+].[C-]#[O+].[C-]#[O+].[Cr].[Cr]` (stereo unspecified), the GI50 in the test on XF 498 CNS, with DLD-1 colon, in the test with M19-MEL melanoma, in the test on SNB-78 CNS, in the test with HOP-18 NSCLC and with DMS 114 small cell lung was over 100 µM in each case. Further, the concentration for total growth inhibition (TGI) in the test with XF 498 CNS, in the test on DLD-1 colon, in the test with M19-MEL melanoma, in the test with SNB-78 CNS, in the test with HOP-18 NSCLC and with DMS 114 small cell lung was over 100 µM throughout.
Consider `O=C1[C@@H](c2ccc(Cl)cc2)[C@H]2CC=C[C@H]2N1O`, for which the TGI with XF 498 CNS, in the test on DLD-1 colon, in the test on M19-MEL melanoma, in the test with SNB-78 CNS, in the test on RXF-631 renal and in the test with DMS 114 small cell lung was over 100 µM in each case.
As to `COC(=O)c1nc(NN)[nH]c(=O)c1CCCCCc1c(C(=O)OC)[nH]c(NN)cc1=O`, the TGI in the test with XF 498 CNS, in the test with DLD-1 colon, with M19-MEL melanoma, with SNB-78 CNS, with HOP-18 NSCLC and with DMS 114 small cell lung was over 100 µM each time.
Regarding `O=[N+]([O-])c1ccc(N=Nc2c(O)[nH]c3ccc([N+](=O)[O-])cc23)cc1`, the TGI in the test with XF 498 CNS was 32.3 µM; in the test on DLD-1 colon it was over 100 µM; with M19-MEL melanoma it was 36.9 µM; in the test with RXF-631 renal, 62.7 µM; with DMS 114 small cell lung, 86.3 µM.
Take `COC(=O)C1=CCON(c2ccccc2)C1c1ccccc1` (stereo unspecified): the concentration for total growth inhibition (TGI) in the test on XF 498 CNS, with DLD-1 colon, with M19-MEL melanoma, in the test on HOP-18 NSCLC and in the test on DMS 114 small cell lung was over 100 µM throughout.
On to `COc1ccc([C@H]2CC(=O)N3CCCC3N2)cc1` (stereo partly specified), for which the TGI with XF 498 CNS, in the test on DLD-1 colon, in the test with M19-MEL melanoma, in the test on SNB-78 CNS, in the test on HOP-18 NSCLC and with DMS 114 small cell lung was over 100 µM throughout.
Turning to `CC(=O)N(CCN)CCN`, the TGI is over 100 µM with XF 498 CNS; over 100 µM in the test with DLD-1 colon; over 10 µM in the test on M19-MEL melanoma; over 10 µM with SNB-78 CNS; over 10 µM with RXF-631 renal; over 10 µM with DMS 114 small cell lung.
For `O=C1c2ccccc2N2OC3(N4CCCC4)CCCC3C12c1ccccc1` (stereo unspecified), the total growth inhibition concentration (TGI) with XF 498 CNS, in the test with DLD-1 colon, in the test with M19-MEL melanoma, with SNB-78 CNS, in the test with HOP-18 NSCLC and in the test on DMS 114 small cell lung was over 100 µM each time.
As to `COc1cc(C2c3cc4c(cc3[C@@H](Nc3ccc(N(C)C)cc3)[C@H]3COC(=O)C23)OCO4)cc(OC)c1O` (stereo partly specified), the GI50 was 2.27 µM in the test with XF 498 CNS; 2.19 µM with DLD-1 colon; 2.53 µM in the test with M19-MEL melanoma; 8.2 µM in the test with SNB-78 CNS; 0.596 µM in the test on DMS 114 small cell lung. The concentration for total growth inhibition (TGI) in the test with XF 498 CNS was 10.9 µM and 13.3 µM; in the test on DLD-1 colon, 9.22 µM and 12.4 µM; with M19-MEL melanoma, 12.3 µM and 16.5 µM; in the test on SNB-78 CNS, 22.2 µM and 37.6 µM; in the test with HOP-18 NSCLC, 17 µM; with DMS 114 small cell lung, 2.95 µM and 3.2 µM.

Usually TGI stands for the concentration at which net growth stops. Higher therefore signals less potent growth arrest. Broadly, the GI50 is the concentration giving 50% growth inhibition.
